# Values of other authors, collected in patent publication US20220387349A1, “TREATMENT OF CUTANEOUS ADVERSE EFFECTS CAUSED BY ONCOLOGICAL THERAPY WITH TOPICAL TAPINAROF COMPOSITIONS” (Sol-Gel Technologies Ltd, priority 2019, published 2022).
# Read-outs that look alike come from different tables or passages of the source.
# How the values were obtained:
# [1] = system: interleukin-6 and interleukin-17A; conditions: in vitro human skin studies
# [2] = psoriasis treatment, as a single drug; placebo 20.2%
# [3] = system: interleukin-6 and interleukin-17A; conditions: mouse models
# [4] = 1% tapinarof arm compared with the 0.5% arm or vehicle
SMILES,effect on skin barrier function [1],"effect on specific proinflammatory mediators, including interleukin-6 and interleukin-17A [1]",efficacy [4],onset of action [4],most frequent adverse events (topical tapinarof),"side-effects at higher concentrations (topical, higher than 1% w/w tapinarof)",adverse effects [2] [%],effect on skin barrier function [3],"effect on specific proinflammatory mediators, including interleukin-6 and interleukin-17A [3]"
"CC(C)c1c(O)cc(/C=C/c2ccccc2)cc1O [Tapinarof, 3,5-dihydroxy-4-isopropyl-trans-stilbene]",enhance skin barrier function,inhibit specific proinflammatory mediators,higher efficacy,quicker onset of action,folliculitis and contact dermatitis,undesirable side-effects,44.5,enhance skin barrier function,inhibit specific proinflammatory mediators
C=C1/C(=C\C=C2/CCC[C@]3(C)[C@@H]([C@H](C)/C=C/[C@@H](O)C4CC4)CC[C@@H]23)C[C@@H](O)C[C@@H]1O [calcipotriene],,,,,,,19.5,,
